Measurements from ChEMBL document CHEMBL1201862, “PubChem BioAssay data set” (2004).
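Assay format: 96-well plates, 48-hour exposure. At the GI50, growth is halved.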 Activity calls are given as the source filed them. Rule as the data show it: active = GI50 up to about 1.1 µM and inactive = higher.

Tests used:
Test in all cases: inhibition of tumour cell growth, NCI panel, 48 h
[1] = tested on: LOX IMVI
[2] = tested on: OVCAR-8
[3] = tested on: U-251
[4] = tested on: KM12
[5] = tested on: COLO 205
[6] = tested on: OVCAR-4
[7] = tested on: HL-60
[8] = tested on: M14
[9] = tested on: HCT-116
[10] = tested on: NCI-H522
[11] = tested on: MCF7
[12] = tested on: BT-549
[13] = tested on: 786-0
[14] = tested on: UO-31
[15] = tested on: EKVX
[16] = tested on: NCI-H23
[17] = tested on: NCI/ADR-RES
[18] = tested on: SNB-19
[19] = tested on: Hs-578T

Row | Compound | GI50 [1] | GI50 [2] | GI50 [3] | GI50 [4] | GI50 [5] | GI50 [6] | GI50 [7] | GI50 [8] | GI50 [9] | GI50 [10] | GI50 [11] | GI50 [12] | GI50 [13] | GI50 [14] | GI50 [15] | GI50 [16] | GI50 [17] | GI50 [18] | GI50 [19]
1 | O=c1cc(/N=N/c2ccc(O)cc2)[nH]c(=O)[nH]1 | 79.6 µM (inactive) | > 100 µM (inactive) | 60.8 µM (inactive) | 16.9 µM (inactive) | > 100 µM (inactive) | > 100 µM (inactive) | > 100 µM (inactive) | > 100 µM (inactive) | > 100 µM (inactive) | 31.7 µM (inactive) | > 100 µM (inactive) | > 100 µM (inactive) | 39.8 µM (inactive) | > 100 µM (inactive) | > 100 µM (inactive) | > 100 µM (inactive) | > 100 µM (inactive) | > 100 µM (inactive) | 
2 | N#CC(C#N)=C/C=C(\Sc1c(Cl)c(Cl)nc(Cl)c1Cl)c1ccc(Cl)cc1 | 5.56 µM (inactive) | 5.05 µM (inactive) | 16.8 µM (inactive) | 19.1 µM (inactive) | 24.4 µM (inactive) | 29.9 µM (inactive) | 10.8 µM (inactive) | 19.5 µM (inactive) | 10.2 µM (inactive) | 18.8 µM (inactive) | 31.1 µM (inactive) |  | 4.45 µM (inactive) | 29.8 µM (inactive) | 32.4 µM (inactive) | 16.2 µM (inactive) | 12.8 µM (inactive) | 20.7 µM (inactive) | 15.7 µM (inactive)
3 | O=C1/C(=C/c2ccccc2)CCc2ccc(Cl)nc21 | 2.19 µM (inactive) | 7.8 µM (inactive) | 3.11 µM (inactive) | 2.59 µM (inactive) | 19.7 µM (inactive) | 22.5 µM (inactive) | 0.0168 µM (active) | 8.04 µM (inactive) | 2.55 µM (inactive) | 2.76 µM (inactive) | 1.79 µM (inactive) | 13.9 µM (inactive) | 7.18 µM (inactive) | 7.64 µM (inactive) | 17.9 µM (inactive) | 16.6 µM (inactive) | 19.6 µM (inactive) | 15 µM (inactive) | 
4 | C=C1NC(=O)C(CC(C(=O)C(=O)Nc2c(C)cccc2C(C)(C)C)C(=O)c2ccc3ccccc3c2)C(=O)N1 (stereo not given) | > 100 µM (inactive) | > 100 µM (inactive) | > 100 µM (inactive) | > 100 µM (inactive) | > 100 µM (inactive) | > 100 µM (inactive) | > 100 µM (inactive) | > 100 µM (inactive) | > 100 µM (inactive) |  | > 100 µM (inactive) | > 100 µM (inactive) | > 100 µM (inactive) | > 100 µM (inactive) |  | > 100 µM (inactive) | > 100 µM (inactive) | > 100 µM (inactive) | > 100 µM (inactive)
5 | O=C(c1ccccc1)c1c2ccccn2c2cccc[n+]12 | > 100 µM (inactive) | 88.5 µM (inactive) | > 100 µM (inactive) | > 100 µM (inactive) | 20.1 µM (inactive) | > 100 µM (inactive) | 79.6 µM (inactive) | > 100 µM (inactive) | > 100 µM (inactive) |  | > 100 µM (inactive) | > 100 µM (inactive) | > 100 µM (inactive) |  | > 100 µM (inactive) |  | > 100 µM (inactive) |  | > 100 µM (inactive)
6 | CCc1n[nH]c(=O)n1/N=C(\C)c1ccc([N+](=O)[O-])cc1 | 49.4 µM (inactive) | > 100 µM (inactive) | > 100 µM (inactive) | > 100 µM (inactive) | 46.5 µM (inactive) | > 100 µM (inactive) | > 100 µM (inactive) | > 100 µM (inactive) | > 100 µM (inactive) |  | 30.2 µM (inactive) | > 100 µM (inactive) | > 100 µM (inactive) | > 100 µM (inactive) | > 100 µM (inactive) | 66.8 µM (inactive) | > 100 µM (inactive) | > 100 µM (inactive) | 92.3 µM (inactive)
7 | COC(CN(C)C(=S)Nc1cccc2ccccc12)OC | > 10 µM (inactive) | > 10 µM (inactive) | > 10 µM (inactive) | > 10 µM (inactive) | > 10 µM (inactive) | > 10 µM (inactive) | > 10 µM (inactive) | > 10 µM (inactive) | > 10 µM (inactive) | > 10 µM (inactive) | > 10 µM (inactive) |  | > 10 µM (inactive) | > 10 µM (inactive) | > 10 µM (inactive) | > 10 µM (inactive) | > 10 µM (inactive) | > 10 µM (inactive) | > 10 µM (inactive)
8 | [N-]=[N+]=CC(=O)C1CCCN1C(=O)c1ccccc1 (stereo not given) | > 10 µM (inactive) | > 10 µM (inactive) | > 10 µM (inactive) | > 10 µM (inactive) | > 10 µM (inactive) | > 10 µM (inactive) | > 10 µM (inactive) | > 10 µM (inactive) | > 10 µM (inactive) |  | > 10 µM (inactive) | > 10 µM (inactive) | > 10 µM (inactive) | > 10 µM (inactive) | > 10 µM (inactive) | > 10 µM (inactive) | > 10 µM (inactive) | > 10 µM (inactive) | > 10 µM (inactive)
